Test results from patent publication US5571820A, “Heterocyclic compound” (Taisho Pharmaceutical Co., Ltd., priority 1992, dated 1996).

Test system: gastric emptying
Experiment: Activity on gastric emptying in rat (glass spheroids)
Type: in vivo, male Wistar rats
Experimental: Experiment 4. Activity on Gastric Emptying in Rat The activity was investigated by a modification of the method described in British Journal of Pharmacology, 91, 263, 1987. Male Wistar rats weighing 170 to 220 g were used which were deprived of food for 24 hours. Glass spheroids of 500 mg/ml were orally administered to the animal in a dose of 1 ml 30 minutes after subcutaneous administration or 60 minutes after oral administration, of drugs. The glass spheroids remained in the stomach were recovered and their weight was measured to determine gastric emptying to control motility. The compound of the present invention was suspended in physiological saline and the resulting suspension was administered.

In the case of `CC(C)n1c(=O)c(C(=O)N[C@H]2C[C@H]3CC[C@@H](C2)N3C)cc2ccccc21` [Compound 1, endo-N-(8-methyl-8-azabicyclo[3.2.1]oct-3-yl)-1-isopropyl-2(1H)-quinolone-3-carboxamide], the “effect on gastric emptying” value (oral and subcutaneous) is reported as “dose-dependently accelerated gastric emptying”, the “Residual rate in stomach (%)” value (p.o. 0.03 mg/kg, 5 cases) is reported as 67.3% and the “Residual rate in stomach (%)” value (p.o. 0.3 mg/kg, 5 cases) is reported as 64.5%. The “Residual rate in stomach (%)” value (p.o. 3.0 mg/kg, 6 cases) was 42.0%, the “Residual rate in stomach (%)” value (s.c. 0.1 mg/kg, 5 cases) was 51.8% and the “Residual rate in stomach (%)” value (s.c. 1.0 mg/kg, 5 cases) was 50.3%. For the same compound, the “Residual rate in stomach (%)” value (s.c. 10.0 mg/kg, 4 cases) was 36.8%.
